Laboratory results reported in the SangsterLogP compilation.

assay: method code SF-AS, from PMID: 754638; conditions: not given

| SMILES | logP |
| --- | --- |
| COc1cc(S(=O)(=O)CCC(C)C)cc(OC)c1OC | 2.12 |
| COc1cc(S(=O)(=O)CCN2CCOCC2)cc(OC)c1OC | 1.29 |
| COc1cc(S(=O)(=O)CCO)cc(OC)c1OC | 0.18 |
| CCCS(=O)(=O)c1cc(OC)c(OC)c(OC)c1 | 1.56 |
| COc1cc(S(=O)(=O)CC(O)c2ccccc2)cc(OC)c1OC (centres undefined) | 1.65 |
| CCS(=O)(=O)c1cc(OC)c(OC)c(OC)c1 | 1.05 |
| C=CCS(=O)(=O)c1cc(OC)c(OC)c(OC)c1 | 1.34 |

same assay, conditions: pH 7.3

| SMILES | logD |
| --- | --- |
| CCCCN(C)CCS(=O)(=O)c1cc(OC)c(OC)c(OC)c1 | 2.05 |
| COc1cc(S(=O)(=O)CCN2CCCCC2)cc(OC)c1OC | 1.6 |
